Experimental data: PubChem BioAssay (NCI)
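Test compounds were applied to cells in 96-well plates for 48 hours at 5 doses. Here, GI50 denotes the concentration required for 50% inhibition of growth. At the TGI there is no net growth.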

Columns and labels:
Test in all cases: growth of human tumour cells (NCI), 48 h
786-0 renal = tested on: 786-0 renal
A498 renal = tested on: A498 renal
A549 NSCLC = tested on: A549 NSCLC
ACHN renal = tested on: ACHN renal
BT-549 breast = tested on: BT-549 breast
CAKI-1 renal = tested on: CAKI-1 renal
CCRF-CEM leukemia = tested on: CCRF-CEM leukemia
COLO 205 colon = tested on: COLO 205 colon
DU-145 prostate = tested on: DU-145 prostate
EKVX NSCLC = tested on: EKVX NSCLC
HCC-2998 colon = tested on: HCC-2998 colon
HCT-116 colon = tested on: HCT-116 colon
HCT-15 colon = tested on: HCT-15 colon
HL-60(TB) leukemia = tested on: HL-60(TB) leukemia
HOP-62 NSCLC = tested on: HOP-62 NSCLC
HOP-92 NSCLC = tested on: HOP-92 NSCLC
HS 578T breast = tested on: HS 578T breast
HT29 colon = tested on: HT29 colon
IGROV1 ovarian = tested on: IGROV1 ovarian
K-562 leukemia = tested on: K-562 leukemia
KM12 colon = tested on: KM12 colon
LOX IMVI melanoma = tested on: LOX IMVI melanoma
M14 melanoma = tested on: M14 melanoma
MALME-3M melanoma = tested on: MALME-3M melanoma
MCF7 breast = tested on: MCF7 breast
MDA-MB-231 breast = tested on: MDA-MB-231 breast
MDA-MB-435 = tested on: MDA-MB-435
MDA-MB-468 breast = tested on: MDA-MB-468 breast
MOLT-4 leukemia = tested on: MOLT-4 leukemia
NCI-H226 lung = tested on: NCI-H226 lung
NCI-H23 lung = tested on: NCI-H23 lung
NCI-H460 lung = tested on: NCI-H460 lung
NCI-H522 lung = tested on: NCI-H522 lung
NCI/ADR-RES ovarian = tested on: NCI/ADR-RES ovarian
OVCAR-3 ovarian = tested on: OVCAR-3 ovarian
OVCAR-4 ovarian = tested on: OVCAR-4 ovarian
OVCAR-5 ovarian = tested on: OVCAR-5 ovarian
OVCAR-8 ovarian = tested on: OVCAR-8 ovarian
PC-3 prostate = tested on: PC-3 prostate
RPMI-8226 leukemia = tested on: RPMI-8226 leukemia
RXF 393 renal = tested on: RXF 393 renal
SF-268 CNS = tested on: SF-268 CNS
SF-295 CNS = tested on: SF-295 CNS
SF-539 CNS = tested on: SF-539 CNS
SK-MEL-2 melanoma = tested on: SK-MEL-2 melanoma
SK-MEL-28 melanoma = tested on: SK-MEL-28 melanoma
SK-MEL-5 melanoma = tested on: SK-MEL-5 melanoma
SK-OV-3 ovarian = tested on: SK-OV-3 ovarian
SN12C renal = tested on: SN12C renal
SNB-19 CNS = tested on: SNB-19 CNS
SNB-75 CNS = tested on: SNB-75 CNS
SW-620 colon = tested on: SW-620 colon
T-47D breast = tested on: T-47D breast
TK-10 renal = tested on: TK-10 renal
U251 CNS = tested on: U251 CNS
UACC-257 melanoma = tested on: UACC-257 melanoma
UACC-62 melanoma = tested on: UACC-62 melanoma
UO-31 renal = tested on: UO-31 renal

## Cc1ccc2nc(-c3ccc(-c4nnc(SCC(=O)Nc5ccc(Cl)cc5)o4)cc3)[nH]c2c1
786-0 renal
  GI50: 3.05 µM
  TGI: 10.7 µM
A498 renal
  GI50: 16.3 µM
  TGI: 31.4 µM
A549 NSCLC
  GI50: 3.09 µM
  TGI: 12.5 µM
ACHN renal
  GI50: 4 µM
  TGI: 15.3 µM
BT-549 breast
  GI50: 16.4 µM
  TGI: 32.4 µM
CAKI-1 renal
  GI50: 3.59 µM
  TGI: 15.9 µM
CCRF-CEM leukemia
  GI50: 5.91 µM
  TGI: > 100 µM
COLO 205 colon
  GI50: 9.86 µM
  TGI: 30.8 µM
DU-145 prostate
  GI50: 7.92 µM
  TGI: 47.7 µM
EKVX NSCLC
  GI50: 6.56 µM
  TGI: 21.5 µM
HCC-2998 colon
  GI50: 10.6 µM
  TGI: 23.7 µM
HCT-116 colon
  GI50: 3.01 µM
  TGI: 15.2 µM
HCT-15 colon
  GI50: 7.87 µM
  TGI: 21.2 µM
HL-60(TB) leukemia
  GI50: 18.5 µM
  TGI: > 100 µM
HOP-62 NSCLC
  GI50: 5.43 µM
  TGI: 23.5 µM
HOP-92 NSCLC
  GI50: 5.99 µM
  TGI: 24.4 µM
HS 578T breast
  GI50: 10.2 µM
  TGI: 37.3 µM
HT29 colon
  GI50: 4.73 µM
  TGI: 19.3 µM
IGROV1 ovarian
  GI50: 5.9 µM
  TGI: 19 µM
K-562 leukemia
  GI50: 3.88 µM
  TGI: > 100 µM
KM12 colon
  GI50: 13.3 µM
  TGI: 39 µM
LOX IMVI melanoma
  GI50: 2.17 µM
  TGI: 5.64 µM
M14 melanoma
  GI50: 5.75 µM
  TGI: 25.4 µM
MALME-3M melanoma
  GI50: 10.4 µM
  TGI: 22.2 µM
MCF7 breast
  GI50: 4 µM
  TGI: 16.7 µM
MDA-MB-231 breast
  GI50: 4.37 µM
  TGI: 16 µM
MDA-MB-435
  GI50: 6.5 µM
  TGI: 20.2 µM
MDA-MB-468 breast
  GI50: 4.99 µM
  TGI: 17.6 µM
MOLT-4 leukemia
  GI50: 7.02 µM
  TGI: 75 µM
NCI-H226 lung
  GI50: 2.96 µM
  TGI: 9.92 µM
NCI-H23 lung
  GI50: 4.37 µM
  TGI: 16.6 µM
NCI-H460 lung
  GI50: 3.67 µM
  TGI: 15.8 µM
NCI-H522 lung
  GI50: 10.2 µM
  TGI: 24.9 µM
NCI/ADR-RES ovarian
  GI50: 4.13 µM
  TGI: 14.6 µM
OVCAR-3 ovarian
  GI50: 7.37 µM
  TGI: 22.4 µM
OVCAR-4 ovarian
  GI50: 8.99 µM
  TGI: 28.7 µM
OVCAR-5 ovarian
  GI50: 15.4 µM
  TGI: 38.3 µM
OVCAR-8 ovarian
  GI50: 4.84 µM
  TGI: 16.9 µM
PC-3 prostate
  GI50: 3.73 µM
  TGI: 20.5 µM
RPMI-8226 leukemia
  GI50: 9.08 µM
  TGI: > 100 µM
RXF 393 renal
  GI50: 4.41 µM
  TGI: 16.5 µM
SF-268 CNS
  GI50: 15.7 µM
  TGI: 40.3 µM
SF-295 CNS
  GI50: 3.25 µM
  TGI: 12.4 µM
SF-539 CNS
  GI50: 10.9 µM
  TGI: 23.1 µM
SK-MEL-2 melanoma
  GI50: 15.5 µM
  TGI: 33.4 µM
SK-MEL-28 melanoma
  GI50: 7.41 µM
  TGI: 20.2 µM
SK-MEL-5 melanoma
  GI50: 12.3 µM
  TGI: 26.4 µM
SK-OV-3 ovarian
  GI50: 7.48 µM
  TGI: 25.4 µM
SN12C renal
  GI50: 4.21 µM
  TGI: 15.8 µM
SNB-19 CNS
  GI50: 6.93 µM
  TGI: 23.8 µM
SNB-75 CNS
  GI50: 10.5 µM
  TGI: 23.9 µM
SW-620 colon
  GI50: 3.73 µM
  TGI: 19.5 µM
T-47D breast
  GI50: 18.1 µM
  TGI: 69.7 µM
TK-10 renal
  GI50: 6.8 µM
  TGI: 20.6 µM
U251 CNS
  GI50: 3.23 µM
  TGI: 14.2 µM
UACC-257 melanoma
  GI50: 15.2 µM
  TGI: 31.5 µM
UACC-62 melanoma
  GI50: 10.1 µM
  TGI: 21.8 µM
UO-31 renal
  GI50: 10.6 µM
  TGI: 22.7 µM
